pIC50: −log10 of the molar value.

One data set deals with Jurkat cells. Nature of the data set: Jurkat IL-2 secretion detection (anti-CD3/CD28 beads, ELISA). It is filed as cell-based, human. To be noted: for Maximum induction factor: IL-2 secretion, Jurkat cells; for EC3x: concentration for IL-2 secretion of Jurkat cells to reach 3 times the baseline, 20 h. Here is the method:
Pharmacological Experiment 5: Jurkat IL-2 Secretion Detection
• (1) Take the cultured Jurkat cells, adjust the density to 1×10^6 cells/mL, and inoculate them in a flat-bottom […] plate (Jet Biofil, TCP011096), with 100 μL per well, • (2) Add 50 μL of the test compound to each well and incubate at 37° C. for 30 min; • (3) Take human anti-CD3/CD28 magnetic beads (Miltenyi, 130-091-441), wash once with RPMI-1640 complete medium, and adjust the density to 4×106 beads/mL for later use; • (4) After the compound incubation, 50 μL of anti-human CD3/CD28 magnetic beads were added to each well and cultured at 37° C. for 20 h, • (5) The cell culture supernatant was obtained and the IL-2 secretion was detected using the Human IL-2 DuoSet ELISA kit (R&D, DY008); • (6) The log value of the concentration was used as the X-axis and the IL-2 secretion was used as the Y-axis. The “log (agonist) vs. response-variable slope” equation of the analysis software GraphPad Prism 7 was used to fit the dose-effect curve, thereby obtaining the […] and the […]
(In general: In an ELISA, binding on a coated surface is turned into a signal by an enzyme label.)

Data set [1] is described as follows: PK study of compound in dogs. In kind it is in vivo. To be noted: Beagle dog. The procedure:
Pharmacological Experiment 6: PK Study of Compound in Dogs The compound was mixed with a solvent of saline or 10% DMSO/5% Solutol/85% saline or 10% DMSO/10% Solutol/80% saline (specific solvents are shown in the table below), vortexed and sonicated to prepare a clear oral solution. […] The drug concentration was analyzed by LC-MS/MS method, and the pharmacokinetic parameters were calculated using Phoenix WinNolin software (Pharsight, USA).

The next data set addresses HPK1 (Homo sapiens (Human), UniProt Q92918). The experiment in a line: HPK1 enzyme activity detection (1 mM ATP system), ADP-Glo with MBP substrate, Pharmacological Experiment 2. It is filed as biochemical. The essentials:
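Compound in DMSO preincubated with HPK1 for 15 min at 25 °C, then reaction started with ATP (1 mM system) and MBP substrate for 60 min at 25 °C. ADP formed quantified by ADP-Glo luminescence; IC50 derived from percentage inhibition.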
For orientation: ADP-Glo first removes unused ATP, then detects ADP through luciferase.

Data set [2] has as its system mouse colon cancer cell CT26. Nature of the data set: Efficacy in CT26 CDX model mice (subcutaneous homologous transplant tumor). In kind it is in vivo, Balb/c mouse. As to conditions: after 21 days. Here is the method: Pharmacological Experiment 8; Study on the Efficacy of the Compound in CT26CDX Model Mice […] The first group (G1) was a vehicle control group (10% propylene glycol/5% HS15/85% glucose). The second group (G2) was the control compound D1-administered group. […] Note: PO stands for oral gavage, QD stands for once daily dosing, and BID stands for twice daily dosing. Tumor size and mouse body weight were measured twice a week during the experiment, and the weight of the animals on that day was used as a reference for each drug administration. The tumor size was measured by using a vernier caliper to measure the length (a) and width (b) of the tumor. The tumor volume (TV) was calculated using the following formula: TV=a*b2/2 After 21 days of administration, the tumor growth inhibition rate (TGI) of each administration group is shown in Table 10.

Data set [3] in a line: PK study of compound in monkeys. In kind it is in vivo. To be noted: crab-eating monkey; for IV Plasma Cl_obs: IV 1 mg/kg. Here is the method:
Pharmacological Experiment 7: PK Study of Compound in Monkeys
The drug concentration was analyzed by LC-MS/MS method, and the pharmacokinetic parameters were calculated using Phoenix WinNolin software (Pharsight, USA).

Data set [4] deals with human peripheral blood mononuclear cells. The experiment in a line: Detection of IFN-γ secretion in human peripheral blood mononuclear cells (anti-CD3/CD28 beads, ELISA). It is filed as cell-based. As to conditions: for Maximum induction factor: IFN-γ secretion, human PBMC; for EC3x: concentration for IFN-γ secretion of human PBMC to reach 3 times the baseline, 3 days. The procedure:
Pharmacological Experiment 4: Detection of IFN-γ Secretion in Human Peripheral Blood Monocytes
• (1) Take human peripheral blood mononuclear cells frozen in liquid nitrogen, thaw in a 37° C. water bath, add 5 mL of preheated RPMI-1640 complete medium (containing 10% fetal bovine serum and penicillin/streptomycin), centrifuge at 500 g for 10 minutes, and discard the supernatant; • (2) Resuspend the cells in RPMI-1640 complete medium, adjust the density to 5×10^6 cells/mL, inoculate in a low-adhesion 6-well plate (Corning, 3471), and culture at 37° C. for 2 days; • (3) Collect cultured human peripheral blood mononuclear cells, centrifuge at 500 g for 10 min, and discard the supernatant; • (4) Resuspend the cells in RPMI-1640 complete medium, adjust the density to 1×10^6 cells/mL, and inoculate them in a round-bottom 96-well plate (Jet Biofil, TCP-002-096), with 100 μL per well; • (5) Add 50 μL of the test compound to each well and incubate at 37° C. for 30 min; • (6) Take human anti-CD3/CD28 magnetic beads (Miltenyi, 130-091-441), wash once with RPMI-1640 complete medium, and adjust the density to 0.5×106 beads/mL for later use; • (7) After the compound incubation, 50 μL of anti-human CD3/CD28 magnetic beads were added to each well and cultured at 37° C. for 3 days, • (8) The cell culture supernatant was obtained and the IFN-γ secretion was detected using the Human IFN-gamma DuoSet ELISA kit (R&D, DY285B-05); • (9) The log value of concentration was used as the X-axis and the IFN-γ secretion amount was used as the Y-axis. The “log (agonist) vs. response−variable slope” equation of the analysis software GraphPad Prism 7 was used to fit the dose-effect curve, thereby obtaining the EC3x value and the maximum induction factor of the compound for the secretion of IFN-γ from human peripheral blood mononuclear cells to reach 3 times the baseline.

The next data set deals with GLK (Homo sapiens (Human), UniProt Q8IVH8). Nature of the data set: GLK kinase assay (1 mM ATP system), ADP-Glo. In kind it is biochemical. The gist of the method:
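GLK kinase reaction with 1 mM ATP and MBP substrate ran 60 min at 25 °C after 15 min preincubation of enzyme with compound. ADP formed was detected by ADP-Glo luminescence; percent inhibition used to derive IC50.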

Setting [5] is: PO 5 mg/kg, DMSO/Solutol/saline.
Where [6] appears, read: column beside IV plasma Cl_obs (IV 1 mg/kg).

HPK1, sequence (Q92918 whole entry, species assumed): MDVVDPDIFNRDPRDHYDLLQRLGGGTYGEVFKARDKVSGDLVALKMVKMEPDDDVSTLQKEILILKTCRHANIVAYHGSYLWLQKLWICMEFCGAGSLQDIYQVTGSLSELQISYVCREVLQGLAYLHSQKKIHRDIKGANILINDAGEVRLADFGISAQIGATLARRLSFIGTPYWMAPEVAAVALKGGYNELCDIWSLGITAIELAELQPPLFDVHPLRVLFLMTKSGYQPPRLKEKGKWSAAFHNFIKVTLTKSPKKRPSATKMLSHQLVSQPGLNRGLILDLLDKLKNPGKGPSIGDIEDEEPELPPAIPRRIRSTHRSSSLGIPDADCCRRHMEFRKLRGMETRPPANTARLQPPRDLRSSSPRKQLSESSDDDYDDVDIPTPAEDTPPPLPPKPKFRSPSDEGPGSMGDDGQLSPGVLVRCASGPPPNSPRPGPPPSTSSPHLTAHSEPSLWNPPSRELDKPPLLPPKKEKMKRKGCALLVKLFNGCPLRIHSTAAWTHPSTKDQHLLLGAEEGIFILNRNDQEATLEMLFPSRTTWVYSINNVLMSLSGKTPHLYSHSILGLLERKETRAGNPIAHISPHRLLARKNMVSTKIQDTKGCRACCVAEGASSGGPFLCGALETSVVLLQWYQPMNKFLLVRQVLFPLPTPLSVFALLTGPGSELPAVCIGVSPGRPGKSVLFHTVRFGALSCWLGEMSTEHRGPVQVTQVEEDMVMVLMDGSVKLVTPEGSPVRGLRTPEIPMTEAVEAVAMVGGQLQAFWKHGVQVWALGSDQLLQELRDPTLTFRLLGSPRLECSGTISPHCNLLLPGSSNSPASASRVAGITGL
GLK, sequence (Q8IVH8 whole entry, species assumed): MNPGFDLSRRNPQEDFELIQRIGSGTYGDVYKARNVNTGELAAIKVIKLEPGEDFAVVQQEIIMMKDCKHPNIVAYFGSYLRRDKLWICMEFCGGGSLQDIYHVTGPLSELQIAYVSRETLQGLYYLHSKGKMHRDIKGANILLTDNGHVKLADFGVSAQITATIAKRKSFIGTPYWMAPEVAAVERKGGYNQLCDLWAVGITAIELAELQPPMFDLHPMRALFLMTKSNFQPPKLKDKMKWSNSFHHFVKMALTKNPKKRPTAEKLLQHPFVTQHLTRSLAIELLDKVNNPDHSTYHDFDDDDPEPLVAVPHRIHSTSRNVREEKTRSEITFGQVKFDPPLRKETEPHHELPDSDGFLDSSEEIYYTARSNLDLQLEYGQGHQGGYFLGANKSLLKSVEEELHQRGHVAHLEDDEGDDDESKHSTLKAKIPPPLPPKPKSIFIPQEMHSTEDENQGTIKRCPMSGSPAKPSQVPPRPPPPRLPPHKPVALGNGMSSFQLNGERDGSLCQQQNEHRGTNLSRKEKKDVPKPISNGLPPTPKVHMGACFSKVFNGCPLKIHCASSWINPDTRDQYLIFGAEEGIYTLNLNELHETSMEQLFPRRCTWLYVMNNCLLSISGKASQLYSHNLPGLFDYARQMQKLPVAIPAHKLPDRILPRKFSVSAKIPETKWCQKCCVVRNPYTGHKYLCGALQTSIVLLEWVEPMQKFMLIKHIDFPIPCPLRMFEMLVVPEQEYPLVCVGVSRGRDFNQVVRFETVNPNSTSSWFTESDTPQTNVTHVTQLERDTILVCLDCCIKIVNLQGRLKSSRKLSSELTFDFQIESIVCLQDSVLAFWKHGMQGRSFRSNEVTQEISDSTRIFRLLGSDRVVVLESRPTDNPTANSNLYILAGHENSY

One may read the pIC50 as the negative decadic logarithm of the IC50, by convention in mol/L. The term TGI denotes how far tumour growth fell short of that in controls. For the compound `CN(C)[C@@H]1CC2(CCOCC2)c2ccc(Nc3ccc(-c4cnc5cc(F)ccn45)c4c3C(=O)NC4)nc21` [Compound 2B, (R)-7-((7-(DIMETHYLAMINO)-2′,3′,5′,6,6′,7-HEXAHYDROSPIRO[CYCLOPENTADIENYL[B]PYRIDINE-54′-PYRAN]-2-YL)AMINO)-4-(7-FLUOROIMIDAZO[1,2-A]PYRIDIN-3-YL)ISOINDOLIN-1-ONE], the results for the Maximum induction factor (in the data set on Jurkat cells; in data set [4]) were 10.9 and 7.7, respectively. For the same compound, the “EC3x” value in the data set on Jurkat cells is 90.7 nM; in data set [4] it was 22 nM. In addition, the “Bioavailability F %” value in data set [1] (setting [5]) was determined as 48.4%; in data set [3] (IV 1 mg/kg and PO 5 mg/kg), 50.2%. For the same compound, the “PO Plasma AUC” value in data set [1] (setting [5]) worked out at 1082 ng·h/mL; in data set [3] (PO 5 mg/kg), 6302 ng·h/mL. Moreover, the figures for the “T1/2” value in data set [1] (setting [5]) and in data set [3] (setting [6]) were 1.65 h and 8.81 h, respectively. The pIC50 against HPK1 was 8.99; on GLK it was 6.33. Besides, the TGI came out at 59% in data set [2] (25 mg/kg PO QD), 90% in data set [2] (75 mg/kg PO BID) and 70% in data set [2] (75 mg/kg PO QD). In addition, the “IV Plasma Cl_obs” value in data set [3] is 6.16 mL/min/kg.
A word on the AUC: it is the area under the concentration-time curve, a measure of exposure. A lower AUC goes with low exposure. By half-life is commonly meant the time needed for the level to fall by half in the phase considered. The bioavailability is dose-corrected exposure relative to a reference, in per cent. As to `CN(C)Cc1nc(Nc2ccc(-c3cnc4cc(F)ccn34)c3c2C(=O)NC3)ccc1C1CCOCC1` [Compound D1, reference compound], the figures for the Maximum induction factor (in the data set on Jurkat cells; in data set [4]) were 8.1 and 4.6, respectively. The “EC3x” value is reported as 544 nM with Jurkat cells and 528 nM in data set [4]. The AUC stood at 396 ng·h/mL in data set [1] (plasma, PO 10 mg/kg, saline) and 1720 ng·h/mL in data set [3] (plasma, PO 5 mg/kg). Also, the half-life is 191 min in data set [1] (plasma, PO 10 mg/kg, saline) and 241 min in data set [3] (setting [6]). Also, the bioavailability in data set [1] (plasma, PO 10 mg/kg, saline, read-out: Bioavailability F %) was determined as 11.6%. The same compound returned a TGI in data set [2] (75 mg/kg PO QD) of 38%. In data set [3], the “IV Plasma Cl_obs” value turned out to be 17.6 mL/min/kg.

The record behind these values is patent US20250361241A1, “HPK1 INHIBITOR AND MEDICAL USE THEREOF” (Betta Pharmaceuticals Co., Ltd., priority 2022, published 2025).
